Data on 26 compounds can be found in patent US20230079819A1, “COMPOUNDS AND USES THEREOF” (Foghorn Therapeutics Inc., priority 2019, published 2023).

One experiment deals with T1, BRG-1 (Homo sapiens, UniProt P51532).
T1 construct: made in house; host or cells: High Five insect cells
Nature of the experiment: ATPase catalytic activity of BRG-1, ADP-Glo in vitro biochemical assay. As to conditions: ATPase catalytic activity, 30 nM BRG-1, 400 μM ATP, read-out: BRG1 IP50 (μM)*. A general note: ADP-Glo first removes unused ATP, then detects ADP through luciferase.

The next experiment has as its target T2, BRM (Homo sapiens, UniProt P51531).
T2 construct: made in house; host or cells: High Five insect cells
Nature of the experiment: ATPase catalytic activity of BRM, ADP-Glo in vitro biochemical assay. Particulars: ATPase catalytic activity, 30 nM BRM, 400 μM ATP, read-out: BRM IP50 (μM)*.

T2 sequence (P51531 whole entry): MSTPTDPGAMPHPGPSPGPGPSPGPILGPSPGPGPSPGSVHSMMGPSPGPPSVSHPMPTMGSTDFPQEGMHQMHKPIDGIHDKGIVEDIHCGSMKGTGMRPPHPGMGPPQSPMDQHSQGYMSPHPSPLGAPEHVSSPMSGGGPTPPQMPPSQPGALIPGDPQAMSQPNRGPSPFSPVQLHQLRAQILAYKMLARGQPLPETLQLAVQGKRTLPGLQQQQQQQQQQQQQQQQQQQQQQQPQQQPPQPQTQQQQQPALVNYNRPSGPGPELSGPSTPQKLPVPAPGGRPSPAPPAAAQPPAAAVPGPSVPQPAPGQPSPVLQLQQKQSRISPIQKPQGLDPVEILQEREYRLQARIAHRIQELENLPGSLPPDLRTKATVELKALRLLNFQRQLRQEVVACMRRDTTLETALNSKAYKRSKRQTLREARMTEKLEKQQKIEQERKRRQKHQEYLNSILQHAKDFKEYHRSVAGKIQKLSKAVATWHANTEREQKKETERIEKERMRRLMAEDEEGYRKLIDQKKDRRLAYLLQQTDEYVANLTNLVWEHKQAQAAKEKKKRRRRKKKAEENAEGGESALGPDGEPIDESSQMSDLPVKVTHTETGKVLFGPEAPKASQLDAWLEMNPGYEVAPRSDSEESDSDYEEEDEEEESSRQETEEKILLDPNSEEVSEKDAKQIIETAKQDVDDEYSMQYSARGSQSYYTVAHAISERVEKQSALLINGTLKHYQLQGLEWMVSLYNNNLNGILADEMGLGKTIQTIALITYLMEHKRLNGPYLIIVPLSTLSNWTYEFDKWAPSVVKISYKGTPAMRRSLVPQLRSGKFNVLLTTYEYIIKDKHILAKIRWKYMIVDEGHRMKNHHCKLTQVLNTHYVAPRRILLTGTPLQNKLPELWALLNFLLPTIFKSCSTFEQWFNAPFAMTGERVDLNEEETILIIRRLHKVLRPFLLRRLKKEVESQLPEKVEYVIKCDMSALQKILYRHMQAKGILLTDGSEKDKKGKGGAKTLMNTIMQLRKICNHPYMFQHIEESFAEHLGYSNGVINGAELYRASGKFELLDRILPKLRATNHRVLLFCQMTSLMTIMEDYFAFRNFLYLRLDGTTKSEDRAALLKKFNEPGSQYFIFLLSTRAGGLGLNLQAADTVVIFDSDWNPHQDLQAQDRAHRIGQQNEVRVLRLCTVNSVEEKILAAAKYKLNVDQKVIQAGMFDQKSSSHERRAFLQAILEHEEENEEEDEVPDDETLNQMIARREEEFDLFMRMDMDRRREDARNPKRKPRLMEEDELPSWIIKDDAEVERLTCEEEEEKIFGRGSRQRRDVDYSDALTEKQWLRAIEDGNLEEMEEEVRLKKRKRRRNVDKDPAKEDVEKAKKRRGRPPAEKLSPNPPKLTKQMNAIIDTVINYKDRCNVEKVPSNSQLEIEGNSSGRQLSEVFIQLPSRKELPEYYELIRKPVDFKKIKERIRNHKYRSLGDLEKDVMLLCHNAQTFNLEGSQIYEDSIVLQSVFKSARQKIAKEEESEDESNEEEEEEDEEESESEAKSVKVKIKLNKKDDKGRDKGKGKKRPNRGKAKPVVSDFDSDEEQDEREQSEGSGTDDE
T1 sequence (P51532 whole entry): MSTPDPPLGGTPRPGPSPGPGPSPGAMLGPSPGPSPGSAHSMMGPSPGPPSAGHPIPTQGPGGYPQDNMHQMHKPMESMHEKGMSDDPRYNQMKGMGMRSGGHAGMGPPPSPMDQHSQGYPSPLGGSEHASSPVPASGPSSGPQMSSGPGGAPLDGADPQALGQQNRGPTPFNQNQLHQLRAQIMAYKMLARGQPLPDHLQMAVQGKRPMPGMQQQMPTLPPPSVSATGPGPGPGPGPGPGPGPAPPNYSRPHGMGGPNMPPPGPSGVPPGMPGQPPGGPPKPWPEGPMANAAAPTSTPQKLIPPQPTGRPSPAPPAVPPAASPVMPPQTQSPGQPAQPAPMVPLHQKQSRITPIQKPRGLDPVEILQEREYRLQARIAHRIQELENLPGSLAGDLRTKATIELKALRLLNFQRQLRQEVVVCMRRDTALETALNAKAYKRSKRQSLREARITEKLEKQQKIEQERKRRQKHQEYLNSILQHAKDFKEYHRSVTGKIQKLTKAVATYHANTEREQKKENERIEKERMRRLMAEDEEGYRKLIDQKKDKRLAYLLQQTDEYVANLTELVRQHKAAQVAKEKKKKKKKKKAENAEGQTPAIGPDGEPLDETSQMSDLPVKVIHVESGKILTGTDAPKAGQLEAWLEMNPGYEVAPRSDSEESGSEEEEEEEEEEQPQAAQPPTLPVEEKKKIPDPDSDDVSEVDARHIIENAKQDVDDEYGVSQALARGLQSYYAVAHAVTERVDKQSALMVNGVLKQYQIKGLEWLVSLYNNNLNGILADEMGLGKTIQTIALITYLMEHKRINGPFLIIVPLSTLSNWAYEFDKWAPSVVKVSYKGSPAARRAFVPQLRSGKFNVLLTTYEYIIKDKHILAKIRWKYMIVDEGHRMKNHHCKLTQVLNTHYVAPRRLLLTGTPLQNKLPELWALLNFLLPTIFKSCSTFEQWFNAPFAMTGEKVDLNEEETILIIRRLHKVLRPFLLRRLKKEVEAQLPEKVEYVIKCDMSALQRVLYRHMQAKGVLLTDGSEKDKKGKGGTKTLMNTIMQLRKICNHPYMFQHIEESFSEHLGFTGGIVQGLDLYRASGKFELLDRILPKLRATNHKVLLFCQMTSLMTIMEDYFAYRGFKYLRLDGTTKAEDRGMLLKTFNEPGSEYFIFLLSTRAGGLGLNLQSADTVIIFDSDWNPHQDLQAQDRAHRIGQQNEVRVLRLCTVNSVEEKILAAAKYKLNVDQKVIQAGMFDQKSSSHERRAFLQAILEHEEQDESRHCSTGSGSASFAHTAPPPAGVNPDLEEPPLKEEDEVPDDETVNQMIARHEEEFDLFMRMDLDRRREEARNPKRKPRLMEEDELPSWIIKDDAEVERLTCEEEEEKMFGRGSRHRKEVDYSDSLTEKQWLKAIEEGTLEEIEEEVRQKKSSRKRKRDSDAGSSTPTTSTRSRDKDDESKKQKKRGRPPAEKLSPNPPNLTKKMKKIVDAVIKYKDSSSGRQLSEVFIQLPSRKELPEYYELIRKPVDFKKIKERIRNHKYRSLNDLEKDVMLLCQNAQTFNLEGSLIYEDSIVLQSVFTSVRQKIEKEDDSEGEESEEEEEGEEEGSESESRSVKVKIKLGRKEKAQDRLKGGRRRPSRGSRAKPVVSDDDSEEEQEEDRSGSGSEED

Consider `CC(C)(C)C[C@H](NC(=O)c1ccn(S(C)(=O)=O)c1)C(=O)Nc1nc(-c2cccc(-c3ccncc3)c2)cs1` [Compound 76, (S)—N-(4,4-dimethyl-1-oxo-1-((4-(3-(pyridin-4-yl)phenyl)thiazol-2-yl)amino)pentan-2-yl)-1-(methylsulfonyl)-1H-pyrrole-3-carboxamide], for which the IC50 on BRG-1 and on BRM was greater than 0.01 µM each time.
As to `CN(C)CCC(NC(=O)c1ccn(S(C)(=O)=O)c1)C(=O)Nc1nc(-c2cccc(-c3ccncc3)c2)cs1` (stereo not shown) [Compound 77, N-(4-(dimethylamino)-1-oxo-1-((4-(3-(pyridin-4-yl)phenyl)thiazol-2-yl)amino)butan-2-yl)-1-(methylsulfonyl)-1H-pyrrole-3-carboxamide], the IC50 at BRG-1 and on BRM was greater than 0.01 µM throughout.
`CN(C)CC[C@H](NC(=O)c1ccn(S(C)(=O)=O)c1)C(=O)Nc1nc(-c2cccc(-c3ccncc3)c2)cs1` [Compound 78, (S)—N-(4-(dimethylamino)-1-oxo-1-((4-(3-(pyridin-4-yl)phenyl)thiazol-2-yl)amino)butan-2-yl)-1-(methylsulfonyl)-1H-pyrrole-3-carboxamide]: the IC50 at BRG-1 and on BRM was greater than 0.01 µM throughout.
As to `CN(C)CC[C@@H](NC(=O)c1ccn(S(C)(=O)=O)c1)C(=O)Nc1nc(-c2cccc(-c3ccncc3)c2)cs1` [Compound 79, (R)—N-(4-(dimethylamino)-1-oxo-1-((4-(3-(pyridin-4-yl)phenyl)thiazol-2-yl)amino)butan-2-yl)-1-(methylsulfonyl)-1H-pyrrole-3-carboxamide], the IC50 on BRG-1 and at BRM was greater than 0.1 µM in each case.
On to `Cc1cc(-c2cccc(-c3csc(NC(=O)CNC(=O)c4ccn(S(C)(=O)=O)c4)n3)c2)cc(C)n1` [Compound 81, N-(2-((4-(3-(2,6-dimethylpyridin-4-yl)phenyl)thiazol-2-yl)amino)-2-oxoethyl)-1-(methylsulfonyl)-1H-pyrrole-3-carboxamide], for which the IC50 on BRG-1 and at BRM was less than 0.01 µM each time.
As to `CS(=O)(=O)n1ccc(C(=O)NCC(=O)Nc2nc(-c3cccc(-c4ccnc(C(F)(F)F)c4)c3)cs2)c1` [Compound 82, 1-(methylsulfonyl)-N-(2-oxo-2-((4-(3-(2-(trifluoromethyl)pyridin-4-yl)phenyl)thiazol-2-yl)amino)ethyl)-1H-pyrrole-3-carboxamide], the IC50 at BRG-1 and at BRM was less than 0.01 µM throughout.
For the compound `Cn1cc(-c2cccc(-c3csc(NC(=O)CNC(=O)c4ccn(C(C)(C)C)c4)n3)c2)cn1` [Compound 83, 1-(tert-butyl)-N-(2-((4-(3-(1-methyl-1H-pyrazol-4-yl)phenyl)thiazol-2-yl)amino)-2-oxoethyl)-1H-pyrrole-3-carboxamide], the IC50 at BRG-1 and at BRM was greater than 0.01 µM throughout.
`CC(C)(C)n1ccc(C(=O)NCC(=O)Nc2nc(-c3cccc(-c4ccncn4)c3)cs2)c1` [Compound 84, 1-(tert-butyl)-N-(2-oxo-2-((4-(3-(pyrimidin-4-yl)phenyl)thiazol-2-yl)amino)ethyl)-1H-pyrrole-3-carboxamide]: the IC50 on BRG-1 is greater than 0.01 µM; on BRM it was less than 0.01 µM.
For `C[C@@H]1CN(c2cccc(-c3csc(NC(=O)CNC(=O)c4ccn(S(C)(=O)=O)c4)n3)c2)C[C@@H](C)O1` [Compound 85, N-(2-((4-(3-((2R, 6R)-2,6-dimethylmorpholino)phenyl)thiazol-2-yl)amino)-2-oxoethyl)-1-(methylsulfonyl)-1H-pyrrole-3-carboxamide], in that order: less than 0.01 µM and less than 0.01 µM.
For `C[C@H]1CN(c2cccc(-c3csc(NC(=O)CNC(=O)c4ccn(S(C)(=O)=O)c4)n3)c2)C[C@H](C)O1` [Compound 86, N-(2-((4-(3-((2S, 6S)-2,6-dimethylmorpholino)phenyl)thiazol-2-yl)amino)-2-oxoethyl)-1-(methylsulfonyl)-1H-pyrrole-3-carboxamide], in that order: less than 0.01 µM and less than 0.01 µM.
For `C[C@H]1CN(c2cccc(-c3csc(NC(=O)CNC(=O)c4ccn(S(C)(=O)=O)c4)n3)c2)CCO1` [Compound 87, (S)—N-(2-((4-(3-(2-methylmorpholino)phenyl)thiazol-2-yl)amino)-2-oxoethyl)-1-(methylsulfonyl)-1H-pyrrole-3-carboxamide], in that order: less than 0.01 µM and less than 0.01 µM.
With `C[C@@H]1CN(c2cccc(-c3csc(NC(=O)CNC(=O)c4ccn(S(C)(=O)=O)c4)n3)c2)CCO1` [Compound 88, (R)—N-(2-((4-(3-(2-methylmorpholino)phenyl)thiazol-2-yl)amino)-2-oxoethyl)-1-(methylsulfonyl)-1H-pyrrole-3-carboxamide], the IC50 on BRG-1 and on BRM was less than 0.01 µM each time.
As for `CC1(C)CN(c2cccc(-c3csc(NC(=O)CNC(=O)c4ccn(S(C)(=O)=O)c4)n3)c2)CCO1` [Compound 89, N-(2-((4-(3-(2,2-dimethylmorpholino)phenyl)thiazol-2-yl)amino)-2-oxoethyl)-1-(methylsulfonyl)-1H-pyrrole-3-carboxamide], the IC50 on BRG-1 and at BRM was greater than 0.01 µM in each case.
Take `C[C@@H]1CN(c2cccc(-c3csc(NC(=O)CNC(=O)c4ccn(C(C)(C)C)c4)n3)c2)C[C@H](C)O1` [Compound 90, 1-(tert-butyl)-N-(2-((4-(3-(cis-2,6-dimethylmorpholino)phenyl)thiazol-2-yl)amino)-2-oxoethyl)-1H-pyrrole-3-carboxamide]: the IC50 on BRG-1 and at BRM was less than 0.01 µM in each case.
Turning to `COCC1CCN(c2cccc(-c3csc(NC(=O)CNC(=O)c4ccn(S(C)(=O)=O)c4)n3)c2)CC1` [Compound 91, N-(2-((4-(3-(4-(methoxymethyl)piperidin-1-yl)phenyl)thiazol-2-yl)amino)-2-oxoethyl)-1-(methylsulfonyl)-1H-pyrrole-3-carboxamide], the IC50 on BRG-1 is greater than 0.1 µM; on BRM it was greater than 0.01 µM.
For the compound `COC[C@H]1CCCN(c2cccc(-c3csc(NC(=O)CNC(=O)c4ccn(S(C)(=O)=O)c4)n3)c2)C1` [Compound 92, (S)—N-(2-((4-(3-(3-(methoxymethyl)piperidin-1-yl)phenyl)thiazol-2-yl)amino)-2-oxoethyl)-1-(methylsulfonyl)-1H-pyrrole-3-carboxamide], the IC50 at BRG-1 and at BRM was greater than 0.01 µM in each case.
`Cc1cn(-c2cccc(-c3csc(NC(=O)CNC(=O)c4ccn(S(C)(=O)=O)c4)n3)c2)cn1` [Compound 93, N-(2-((4-(3-(4-methyl-1H-imidazol-1-yl)phenyl)thiazol-2-yl)amino)-2-oxoethyl)-1-(methylsulfonyl)-1H-pyrrole-3-carboxamide]: the IC50 at BRG-1 and at BRM was greater than 0.01 µM in each case.
As to `CS(=O)(=O)n1ccc(C(=O)NCC(=O)Nc2nc(-c3cccc(N4CCC(O)CC4)c3)cs2)c1` [Compound 94, N-(2-((4-(3-(4-hydroxypiperidin-1-yl)phenyl)thiazol-2-yl)amino)-2-oxoethyl)-1-(methylsulfonyl)-1H-pyrrole-3-carboxamide], the IC50 at BRG-1 and at BRM was less than 0.01 µM in each case.
In the case of `COC1CCN(c2cccc(-c3csc(NC(=O)CNC(=O)c4ccn(S(C)(=O)=O)c4)n3)c2)CC1` [Compound 95, N-[2-[[4-[3-(4-methoxy-1-piperidyl)phenyl]thiazol-2-yl]amino]-2-oxo-ethyl]-1-methylsulfonyl-pyrrole-3-carboxamide], the IC50 at BRG-1 and at BRM was greater than 0.01 µM throughout.
As for `COC1(C)CCN(c2cccc(-c3csc(NC(=O)CNC(=O)c4ccn(S(C)(=O)=O)c4)n3)c2)CC1` [Compound 96, N-(2-((4-(3-(4-methoxy-4-methylpiperidin-1-yl)phenyl)thiazol-2-yl)amino)-2-oxoethyl)-1-(methylsulfonyl)-1H-pyrrole-3-carboxamide], the figures for the IC50 at BRG-1 and at BRM were greater than 0.1 µM and greater than 0.01 µM, respectively.
On the same counts, the results for `CO[C@@H]1CCCN(c2cccc(-c3csc(NC(=O)CNC(=O)c4ccn(C(C)(C)C)c4)n3)c2)C1` [Compound 97, (R)-1-(tert-butyl)-N-(2-((4-(3-(3-methoxypiperidin-1-yl)phenyl)thiazol-2-yl)amino)-2-oxoethyl)-1H-pyrrole-3-carboxamide] are greater than 0.1 µM and greater than 0.1 µM.
On the same counts, the results for `CO[C@H]1CCCN(c2cccc(-c3csc(NC(=O)CNC(=O)c4ccn(C(C)(C)C)c4)n3)c2)C1` [Compound 98, (S)-1-(tert-butyl)-N-(2-((4-(3-(3-methoxypiperidin-1-yl)phenyl)thiazol-2-yl)amino)-2-oxoethyl)-1H-pyrrole-3-carboxamide] are greater than 0.01 µM and greater than 0.01 µM.
For `CS(=O)(=O)n1ccc(C(=O)NCC(=O)Nc2nc(-c3cccc(N4CCOCC4)c3)cs2)c1` [Compound 99, 1-methylsulfonyl-N-[2-[[4-(3-morpholinophenyl)thiazol-2-yl]amino]-2-oxo-ethyl]pyrrole-3-carboxamide], in that order: greater than 0.01 µM and less than 0.01 µM.
Consider `CC(C)(C)n1ccc(C(=O)NCC(=O)Nc2nc(-c3cccc(N4CCOCC4)c3)cs2)c1` [Compound 100, 1-tert-butyl-N-[2-[[4-(3-morpholinophenyl)thiazol-2-yl]amino]-2-oxo-ethyl]pyrrole-3-carboxamide], for which the IC50 at BRG-1 and on BRM was greater than 0.01 µM each time.
For `CS(=O)(=O)n1ccc(C(=O)NCC(=O)Nc2nc(-c3cccc(N4CC5(COC5)C4)c3)cs2)c1` [Compound 101, N-(2-((4-(3-(2-oxa-6-azaspiro[3.3]heptan-6-yl)phenyl)thiazol-2-yl)amino)-2-oxoethyl)-1-(methylsulfonyl)-1H-pyrrole-3-carboxamide], the IC50 at BRG-1 and on BRM was less than 0.01 µM each time.
For `CC(C)(Oc1ccncc1)c1cccc(-c2csc(NC(=O)CNC(=O)c3ccn(S(C)(=O)=O)c3)n2)c1` [Compound 102, 1-(methylsulfonyl)-N-(2-oxo-2-((4-(3-(2-(pyridin-4-yloxy)propan-2-yl)phenyl)thiazol-2-yl)amino)ethyl)-1H-pyrrole-3-carboxamide], the IC50 on BRG-1 and at BRM was greater than 0.1 µM throughout.
